Results reported in the kinase profiling compilation of Christmann-Franck et al. (2016).

Assays:
Assay in all cases: KINOMEscan competition binding
Conditions in all cases: compound 0.1 µM
PTK2B (human) = PTK2B (human) (UniProt Q14289)
PRKD1 (human) = PRKD1 (human) (UniProt Q15139)
MYO3B (human) = MYO3B (human) (UniProt Q8WXR4)
CAMK2G (human) = CAMK2G (human) (UniProt Q13555)
[1] = molecular target: JAK1 JH1 catalytic (human) (UniProt P23458)
INSR (human) = INSR (human) (UniProt P06213)
ERN1 (human) = ERN1 (human) (UniProt O75460)
TRPM6 (human) = TRPM6 (human) (UniProt Q9BX84)
DSTYK (human) = DSTYK (human) (UniProt Q6XUX3)
ICK (human) = ICK (human) (UniProt Q9UPZ9)
MAPK6 (human) = MAPK6 (human) (UniProt Q16659)
MAP2K4 (human) = MAP2K4 (human) (UniProt P45985)
Sequence of MAP2K4 (human) (P45985 whole entry, looked up): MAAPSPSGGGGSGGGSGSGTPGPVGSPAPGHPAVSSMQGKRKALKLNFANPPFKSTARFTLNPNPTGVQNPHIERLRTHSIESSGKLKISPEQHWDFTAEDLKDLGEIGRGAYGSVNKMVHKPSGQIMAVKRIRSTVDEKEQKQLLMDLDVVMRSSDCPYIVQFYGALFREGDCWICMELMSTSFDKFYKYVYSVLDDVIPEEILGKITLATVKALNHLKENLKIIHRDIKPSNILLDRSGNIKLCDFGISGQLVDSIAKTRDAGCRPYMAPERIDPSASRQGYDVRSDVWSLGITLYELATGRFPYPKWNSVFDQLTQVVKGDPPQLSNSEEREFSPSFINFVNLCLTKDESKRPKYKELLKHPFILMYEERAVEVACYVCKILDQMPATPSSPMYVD

RET (human) = RET (human) (UniProt P07949)
[2] = molecular target: TYK2 JH2 pseudokinase (human) (UniProt P29597)
Sequence of TYK2 JH2 pseudokinase (human) (P29597 whole entry, looked up): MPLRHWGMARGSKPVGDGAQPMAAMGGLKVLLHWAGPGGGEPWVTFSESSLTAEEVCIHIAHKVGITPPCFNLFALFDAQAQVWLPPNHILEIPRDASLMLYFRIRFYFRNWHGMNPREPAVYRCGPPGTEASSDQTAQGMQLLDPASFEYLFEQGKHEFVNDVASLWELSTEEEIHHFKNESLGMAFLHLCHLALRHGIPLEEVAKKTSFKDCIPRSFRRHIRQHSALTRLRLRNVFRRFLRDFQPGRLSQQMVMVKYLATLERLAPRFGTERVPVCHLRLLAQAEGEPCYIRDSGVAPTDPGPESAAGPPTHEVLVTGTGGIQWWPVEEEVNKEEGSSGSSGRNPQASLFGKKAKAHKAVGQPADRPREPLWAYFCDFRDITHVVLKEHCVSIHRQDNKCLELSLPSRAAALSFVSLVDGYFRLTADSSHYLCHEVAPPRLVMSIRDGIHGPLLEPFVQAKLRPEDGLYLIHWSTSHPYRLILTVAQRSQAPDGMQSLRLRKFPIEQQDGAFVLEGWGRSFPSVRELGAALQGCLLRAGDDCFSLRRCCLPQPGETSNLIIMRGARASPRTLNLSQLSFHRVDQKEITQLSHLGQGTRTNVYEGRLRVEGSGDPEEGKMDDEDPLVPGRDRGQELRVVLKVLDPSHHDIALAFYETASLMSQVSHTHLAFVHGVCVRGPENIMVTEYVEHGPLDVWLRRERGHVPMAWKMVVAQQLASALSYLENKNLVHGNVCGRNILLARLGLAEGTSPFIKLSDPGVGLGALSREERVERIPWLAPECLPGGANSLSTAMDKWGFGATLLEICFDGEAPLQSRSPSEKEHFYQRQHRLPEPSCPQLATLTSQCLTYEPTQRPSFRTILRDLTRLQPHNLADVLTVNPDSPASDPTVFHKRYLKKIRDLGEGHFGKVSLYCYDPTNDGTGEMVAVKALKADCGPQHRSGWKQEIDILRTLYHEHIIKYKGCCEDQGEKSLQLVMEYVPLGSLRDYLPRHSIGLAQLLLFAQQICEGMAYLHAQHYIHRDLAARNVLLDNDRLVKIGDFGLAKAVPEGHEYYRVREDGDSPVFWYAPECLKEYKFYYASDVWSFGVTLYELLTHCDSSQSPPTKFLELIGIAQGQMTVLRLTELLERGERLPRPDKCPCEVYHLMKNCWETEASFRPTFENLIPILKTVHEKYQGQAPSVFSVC

NEK4 (human) = NEK4 (human) (UniProt P51957)
HUNK (human) = HUNK (human) (UniProt P57058)
[3] = test system: EGFR (human), P00533 [A750P; 747-749 del]
GRK1 (human) = GRK1 (human) (UniProt Q15835)
LYN (human) = LYN (human) (UniProt P07948)
MARK1 (human) = MARK1 (human) (UniProt Q9P0L2)
PAK7 (human) = PAK7 (human) (UniProt Q9P286)
CDK11B (human) = CDK11B (human) (UniProt P21127)
STK38L (human) = STK38L (human) (UniProt Q9Y2H1)
Sequence of STK38L (human) (Q9Y2H1 whole entry, looked up): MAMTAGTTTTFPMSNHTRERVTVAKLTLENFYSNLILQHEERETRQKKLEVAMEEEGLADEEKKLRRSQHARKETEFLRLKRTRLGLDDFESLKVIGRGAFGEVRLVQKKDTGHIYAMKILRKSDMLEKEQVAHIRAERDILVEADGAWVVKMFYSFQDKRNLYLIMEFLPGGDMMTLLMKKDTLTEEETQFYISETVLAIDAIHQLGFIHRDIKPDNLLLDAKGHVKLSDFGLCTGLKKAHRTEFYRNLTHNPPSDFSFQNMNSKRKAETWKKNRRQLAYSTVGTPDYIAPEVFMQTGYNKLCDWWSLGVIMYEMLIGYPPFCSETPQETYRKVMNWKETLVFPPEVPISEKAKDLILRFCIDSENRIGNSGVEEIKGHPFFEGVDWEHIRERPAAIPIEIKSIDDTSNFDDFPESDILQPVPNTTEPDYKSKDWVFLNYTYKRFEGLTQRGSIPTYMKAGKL

[4] = molecular target: JAK1 JH2 pseudokinase (human) (UniProt P23458)
CSNK1E (human) = CSNK1E (human) (UniProt P49674)
SRC (human) = SRC (human) (UniProt P12931)
CSNK1D (human) = CSNK1D (human) (UniProt P48730)
SGK110 (human) = SGK110 (human) (UniProt P0C264)
DCLK1 (human) = DCLK1 (human) (UniProt O15075)
Sequence of DCLK1 (human) (O15075 whole entry, looked up): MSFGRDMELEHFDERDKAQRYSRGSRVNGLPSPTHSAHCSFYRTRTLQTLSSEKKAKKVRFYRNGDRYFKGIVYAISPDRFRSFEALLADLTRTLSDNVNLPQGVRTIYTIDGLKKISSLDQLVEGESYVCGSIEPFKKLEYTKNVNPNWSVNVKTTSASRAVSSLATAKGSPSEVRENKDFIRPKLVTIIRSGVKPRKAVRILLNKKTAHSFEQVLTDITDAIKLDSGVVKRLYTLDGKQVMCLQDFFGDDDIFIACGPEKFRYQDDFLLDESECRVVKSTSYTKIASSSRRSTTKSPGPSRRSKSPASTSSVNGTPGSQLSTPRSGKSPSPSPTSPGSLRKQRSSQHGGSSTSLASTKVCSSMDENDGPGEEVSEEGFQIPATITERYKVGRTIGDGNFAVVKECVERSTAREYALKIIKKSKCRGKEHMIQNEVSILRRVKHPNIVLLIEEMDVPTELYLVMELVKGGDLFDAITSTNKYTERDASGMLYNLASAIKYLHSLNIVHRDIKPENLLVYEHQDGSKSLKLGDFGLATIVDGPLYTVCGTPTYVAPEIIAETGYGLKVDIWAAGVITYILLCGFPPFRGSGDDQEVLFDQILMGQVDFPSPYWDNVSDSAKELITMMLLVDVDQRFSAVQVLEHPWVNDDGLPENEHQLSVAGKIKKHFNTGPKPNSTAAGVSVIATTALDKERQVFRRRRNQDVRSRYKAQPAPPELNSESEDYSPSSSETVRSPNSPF

ACVR1 (human) = ACVR1 (human) (UniProt Q04771)
CDK14 (human) = CDK14 (human) (UniProt O94921)
MAPK11 (human) = MAPK11 (human) (UniProt Q15759)
AURKB (human) = AURKB (human) (UniProt Q96GD4)
ACVRL1 (human) = ACVRL1 (human) (UniProt P37023)
PRKAA1 (human) = PRKAA1 (human) (UniProt Q13131)
Sequence of PRKAA1 (human) (Q13131 whole entry, looked up): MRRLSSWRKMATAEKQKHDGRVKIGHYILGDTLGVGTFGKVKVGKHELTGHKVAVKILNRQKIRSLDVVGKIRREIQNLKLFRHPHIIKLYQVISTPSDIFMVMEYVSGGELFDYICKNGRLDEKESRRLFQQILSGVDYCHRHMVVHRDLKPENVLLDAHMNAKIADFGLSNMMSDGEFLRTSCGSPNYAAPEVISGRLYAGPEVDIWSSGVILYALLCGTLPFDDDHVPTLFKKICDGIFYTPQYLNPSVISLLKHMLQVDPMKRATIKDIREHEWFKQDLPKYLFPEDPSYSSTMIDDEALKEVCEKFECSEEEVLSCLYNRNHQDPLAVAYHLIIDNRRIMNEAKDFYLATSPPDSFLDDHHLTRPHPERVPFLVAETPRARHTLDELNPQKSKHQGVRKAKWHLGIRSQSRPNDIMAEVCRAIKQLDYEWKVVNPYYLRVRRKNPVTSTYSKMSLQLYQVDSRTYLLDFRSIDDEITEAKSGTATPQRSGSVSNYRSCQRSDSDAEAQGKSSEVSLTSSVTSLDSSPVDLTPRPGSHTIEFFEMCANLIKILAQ

ANKK1 (human) = ANKK1 (human) (UniProt Q8NFD2)
NEK1 (human) = NEK1 (human) (UniProt Q96PY6)
OXSR1 (human) = OXSR1 (human) (UniProt O95747)
BRAF (human) = BRAF (human) (UniProt P15056)
MYLK2 (human) = MYLK2 (human) (UniProt Q9H1R3)
Sequence of MYLK2 (human) (Q9H1R3 whole entry, looked up): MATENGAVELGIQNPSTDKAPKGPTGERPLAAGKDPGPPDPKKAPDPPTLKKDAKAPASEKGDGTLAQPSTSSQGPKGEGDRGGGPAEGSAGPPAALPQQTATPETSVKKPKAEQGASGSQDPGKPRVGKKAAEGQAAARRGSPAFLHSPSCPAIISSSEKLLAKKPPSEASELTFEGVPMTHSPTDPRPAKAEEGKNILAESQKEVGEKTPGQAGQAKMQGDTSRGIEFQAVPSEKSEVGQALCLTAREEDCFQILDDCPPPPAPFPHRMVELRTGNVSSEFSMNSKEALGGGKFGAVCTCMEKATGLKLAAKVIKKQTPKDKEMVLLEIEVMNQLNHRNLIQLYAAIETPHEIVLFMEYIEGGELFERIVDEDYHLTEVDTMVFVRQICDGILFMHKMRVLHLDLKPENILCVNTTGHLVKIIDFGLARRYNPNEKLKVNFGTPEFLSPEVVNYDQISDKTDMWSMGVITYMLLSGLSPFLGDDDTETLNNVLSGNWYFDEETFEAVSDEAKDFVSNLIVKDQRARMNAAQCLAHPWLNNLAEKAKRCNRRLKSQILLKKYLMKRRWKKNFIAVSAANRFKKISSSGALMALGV

Sequence of PTK2B (human) (Q14289 whole entry, looked up): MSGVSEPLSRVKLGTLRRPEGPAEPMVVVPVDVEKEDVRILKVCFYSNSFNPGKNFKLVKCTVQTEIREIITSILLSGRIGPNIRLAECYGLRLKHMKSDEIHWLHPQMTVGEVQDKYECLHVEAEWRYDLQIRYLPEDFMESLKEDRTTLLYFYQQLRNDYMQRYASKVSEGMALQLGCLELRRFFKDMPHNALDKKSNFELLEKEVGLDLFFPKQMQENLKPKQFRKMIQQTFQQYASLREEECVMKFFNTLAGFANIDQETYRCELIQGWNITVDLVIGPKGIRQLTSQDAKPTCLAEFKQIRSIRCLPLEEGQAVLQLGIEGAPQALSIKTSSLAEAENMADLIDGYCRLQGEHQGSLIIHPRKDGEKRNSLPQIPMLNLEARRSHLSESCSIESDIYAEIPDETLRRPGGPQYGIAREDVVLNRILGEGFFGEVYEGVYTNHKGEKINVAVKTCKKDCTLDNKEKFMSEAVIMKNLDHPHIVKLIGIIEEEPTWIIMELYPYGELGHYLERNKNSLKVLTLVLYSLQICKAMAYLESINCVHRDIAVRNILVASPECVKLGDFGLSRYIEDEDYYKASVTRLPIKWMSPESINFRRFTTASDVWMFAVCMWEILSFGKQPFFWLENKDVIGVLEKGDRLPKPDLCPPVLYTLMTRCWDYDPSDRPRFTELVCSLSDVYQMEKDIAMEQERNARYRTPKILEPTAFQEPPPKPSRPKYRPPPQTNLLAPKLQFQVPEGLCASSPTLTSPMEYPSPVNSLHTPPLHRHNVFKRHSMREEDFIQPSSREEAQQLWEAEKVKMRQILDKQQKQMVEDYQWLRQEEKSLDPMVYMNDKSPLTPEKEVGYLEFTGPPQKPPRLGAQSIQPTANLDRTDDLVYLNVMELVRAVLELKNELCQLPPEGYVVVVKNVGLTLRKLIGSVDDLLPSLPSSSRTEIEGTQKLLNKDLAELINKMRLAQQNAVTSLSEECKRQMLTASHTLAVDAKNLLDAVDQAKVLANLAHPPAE

Compound: CCc1ccc(C(=O)Nc2cc(CN3CCN(C)CC3)cc(C(F)(F)F)c2)cc1C#Cc1cnc2ccnn2c1
- kinase still bound, per cent of control (PTK2B (human)): 90%
- kinase still bound, per cent of control (PRKD1 (human)): 100%
- kinase still bound, per cent of control (MYO3B (human)): 100%
- kinase still bound, per cent of control (CAMK2G (human)): 79%
- kinase still bound, per cent of control [1]: 100%
- kinase still bound, per cent of control (INSR (human)): 86%
- kinase still bound, per cent of control (ERN1 (human)): 100%
- kinase still bound, per cent of control (TRPM6 (human)): 90%
- kinase still bound, per cent of control (DSTYK (human)): 100%
- kinase still bound, per cent of control (ICK (human)): 100%
- kinase still bound, per cent of control (MAPK6 (human)): 98%
- kinase still bound, per cent of control (MAP2K4 (human)): 100%
- kinase still bound, per cent of control (RET (human)): 52%
- kinase still bound, per cent of control [2]: 100%
- kinase still bound, per cent of control (NEK4 (human)): 100%
- kinase still bound, per cent of control (HUNK (human)): 100%
- kinase still bound, per cent of control [3]: 90%
- kinase still bound, per cent of control (GRK1 (human)): 100%
- kinase still bound, per cent of control (LYN (human)): 35%
- kinase still bound, per cent of control (MARK1 (human)): 74%
- kinase still bound, per cent of control (PAK7 (human)): 85%
- kinase still bound, per cent of control (CDK11B (human)): 100%
- kinase still bound, per cent of control (STK38L (human)): 100%
- kinase still bound, per cent of control [4]: 100%
- kinase still bound, per cent of control (CSNK1E (human)): 85%
- kinase still bound, per cent of control (SRC (human)): 76%
- kinase still bound, per cent of control (CSNK1D (human)): 77%
- kinase still bound, per cent of control (SGK110 (human)): 100%
- kinase still bound, per cent of control (DCLK1 (human)): 100%
- kinase still bound, per cent of control (ACVR1 (human)): 84%
- kinase still bound, per cent of control (CDK14 (human)): 81%
- kinase still bound, per cent of control (MAPK11 (human)): 100%
- kinase still bound, per cent of control (AURKB (human)): 100%
- kinase still bound, per cent of control (ACVRL1 (human)): 100%
- kinase still bound, per cent of control (PRKAA1 (human)): 83%
- kinase still bound, per cent of control (ANKK1 (human)): 100%
- kinase still bound, per cent of control (NEK1 (human)): 93%
- kinase still bound, per cent of control (OXSR1 (human)): 100%
- kinase still bound, per cent of control (BRAF (human)): 53%
- kinase still bound, per cent of control (MYLK2 (human)): 100%
